Measurements from publication PMC8588511, “Chromane Derivatives from Underground Parts of Iris tenuifolia and Their In Vitro Antimicrobial, Cytotoxicity and Antiproliferative Evaluation” (Molecules, 2021).
Entries after “also recorded” stand apart in the source; their conditions may differ. Read-outs that look alike come from different tables or passages of the source.

Tests used:
[1] = test system: human chronic myeloid leukemia cells (K-562); experiment: antiproliferation assay (CellTiter-Blue); format: cell-based; settings: for GI50: K-562, 72 h, read-out: Antiproliferative Effect, GI50 (CI 95%)
Description: (§1) In this assay, K-562 (DSM ACC 10), THP-1 (DSM ACC 16), and HeLa (DSM ACC 57) were maintained in Roswell Park Memorial Institute (RPMI) 1640 medium (Cambrex 12-167F) while HUVEC (ATCC CRL-1730) and A549 (DSM ACC 107) were cultured in Dulbecco’s Modified Eagle’s Medium (DMEM) (Cambrex 12-614F). Cells that were grown in the appropriate cell culture medium were supplemented with 10 mL/L ultraglutamine 1 (Cambrex 17-605E/U1), 550 µL/L (50 mg/mL) gentamicin sulfate (Cambrex 17-518Z), and 10% heat inactivated fetal bovine serum (GIBCO Life Technologies 10270-106) at 37 °C. The tested compounds were dissolved in DMSO, and the cells were seeded in 96-well plates at a density of 1 × 10^4 cells/well. As for the antiproliferative effect of the compounds, the cells were incubated for 72 h, and GI50 values were evaluated to be defined as the concentration causing 50% inhibition of proliferation compared to the untreated control. With regard to the cytotoxic assay, HeLa cells were pre-incubated for 48 h without the test compounds. Then, the cells were exposed with different concentrations of compounds and incubated for 72 h. After that, the adherent HeLa cells were fixed by glutaraldehyde and stained with a 0.05% solutions of methylene blue (SERVA 29198) for 15 min. CC50 was evaluated to be defined as the concentration required for the death of 50% of the cell monolayer as compared to control groups. Under our experimental conditions, the optical density measured from the CellTiter-Blue reagent and methylene blue assay is proportional to the number of viable cells. In this experiment, absorbances were measured at 570 nm against the reference wavelength of 600 nm (CellTiter-Blue assay) and at 660 nm (methylene blue assay). Doxorubicin (Adriamycin®) and imatinib (Gleevec®) were used as positive controls for HUVEC, K-562, and HeLa cells. A repeat determination has been conducted in all experiments, and four replicates were assayed. The calculations of the different values of GI50 and CC50 were performed with software Magellan version 3.00 (Tecan Trading AG, Maennedorf, Switzerland).

[2] = test system: human umbilical vein endothelial cells (HUVEC); experiment: antiproliferation assay (CellTiter-Blue); format: cell-based; settings: 72 h, read-out: Antiproliferative Effect, GI50 (CI 95%)
Description: as §1

[3] = test system: human acute monocytic leukemia cells (THP-1); experiment: antiproliferation assay (CellTiter-Blue); format: cell-based; settings: for GI50: THP-1, 72 h, read-out: Antiproliferative Effect, GI50 (CI 95%)
Description: as §1

[4] = test system: human lung carcinoma cells (A549); experiment: antiproliferation assay (CellTiter-Blue); format: cell-based; settings: A549, 72 h, read-out: Antiproliferative Effect, GI50 (CI 95%)
Description: as §1

[5] = test system: human cervix carcinoma cells (HeLa); experiment: cytotoxicity assay (methylene blue); format: cell-based
Description: as §1

[6] = test system: Sporobolomyces salmonicolor (549 H4); experiment: agar diffusion antifungal assay; format: cell-based; settings: 50 μL of 1 mg/mL in DMSO, 18 h, 30 °C, amphotericin B 10 µg/mL
Description: (§2) Compounds 1, 2, 3, 5, 9, and 10 were tested for their antimicrobial activities against S. aureus (JMRC:STI 10760), B. subtilis (JMRC:STI 10880), S. aureus MRSA (JMRC: ST 33793) E. faecalis VRE (JMRC: ST 33700), E. coli (JMRC:ST 33699), P. aeruginosa (JMRC:ST 33771), P. aeruginosa (JMRC:ST 33772), M. vaccae (JMRC:STI 10670), S. salmonicolor (JMRC:ST 35974), C. albicans (JMRC:STI 25000), and P. notatum (JMRC:STI 50164)) using agar diffusion assay as previously published. Strains were obtained from the Jena Microbial Resource Collection (JMRC). The bacteria were cultivated on standard I nutrient agar in Petri dishes at 37 °C. Antifungal bioassays were conducted at 30 °C using the basidiomycetous yeast S. salmonicolor and the filamentous ascomycete P. notatum, which were cultivated on malt agar, and the ascomycetous yeast C. albicans, which was cultivated on yeast morphology agar. After inoculation of the test organisms, a disc (9 mm in diameter) was removed from the center of the Petri dish and 50 μL of the test solution (1 mg/mL in DMSO) was added to the cavity. After 18 h of incubation, the inhibiting areola were measured and documented as diameters in mm. Ciprofloxacin (5 µg/mL in deionized water) and amphotericin B (10 µg/mL in DMSO/MeOH 1:1) were used as reference substances against bacterial and fungal strains, respectively.

[7] = test system: Penicillium notatum (JP36 P1); experiment: agar diffusion antifungal assay; format: cell-based
Description: as §2

[8] = test system: Candida albicans (C.alb.H8); experiment: agar diffusion antifungal assay; format: cell-based; settings: for zone of inhibition at 1000 µg/mL: read-out: Inhibition Zone of Test Microorganism; for antifungal activity in words: Candida albicans, agar diffusion
Description: as §2

[9] = test system: Escherichia coli (458 B4); experiment: agar diffusion antimicrobial assay; format: cell-based; settings: 50 μL of 1 mg/mL in DMSO, 18 h, ciprofloxacin 5 µg/mL
Description: as §2

[10] = test system: Bacillus subtilis (6633 B1); experiment: agar diffusion antimicrobial assay; format: cell-based; settings: Bacillus subtilis (6633 B1), 50 μL of 1 mg/mL in DMSO, 18 h, ciprofloxacin 5 µg/mL; for zone of inhibition at 1000 µg/mL: read-out: Inhibition Zone of Test Microorganism
Description: as §2

[11] = test system: Staphylococcus aureus (511 B3); experiment: agar diffusion antimicrobial assay; format: cell-based; settings: 50 μL of 1 mg/mL in DMSO, 18 h, ciprofloxacin 5 µg/mL
Description: as §2

[12] = test system: Staphylococcus aureus (MRSA 134/94 R9); experiment: agar diffusion antimicrobial assay; format: cell-based; settings: 50 μL of 1 mg/mL in DMSO, 18 h, ciprofloxacin 5 µg/mL
Description: as §2

[13] = test system: Mycobacterium vaccae (10670 M4); experiment: agar diffusion antimicrobial assay; format: cell-based; settings: Mycobacterium vaccae (10670 M4), 50 μL of 1 mg/mL in DMSO, 18 h, ciprofloxacin 5 µg/mL; for zone of inhibition at 1000 µg/mL: Mycolicibacterium vaccae, read-out: Inhibition Zone of Test Microorganism
Description: as §2

[14] = test system: Enterococcus faecalis (VRE 1528 R10); experiment: agar diffusion antimicrobial assay; format: cell-based; settings: Enterococcus faecalis (VRE 1528 R10), 50 μL of 1 mg/mL in DMSO, 18 h, ciprofloxacin 5 µg/mL; for zone of inhibition at 1000 µg/mL: read-out: Inhibition Zone of Test Microorganism
Description: as §2

[15] = test system: Pseudomonas aeruginosa (K799/61 B9); experiment: agar diffusion antimicrobial assay; format: cell-based; settings: 18 h
Description: as §2

[16] = test system: Pseudomonas aeruginosa (SG137 B7); experiment: agar diffusion antimicrobial assay; format: cell-based; settings: 50 μL of 1 mg/mL in DMSO, 18 h, ciprofloxacin 5 µg/mL
Description: as §2

[17] = test system: three fungi and eight bacterial strains; experiment: agar diffusion assay, whole panel; format: cell-based; settings: eleven microorganisms
Description: as §2

[18] = cytotoxicity assay (methylene blue); format: cell-based, human; settings: human, HeLa cells (DSM ACC 57); HeLa, 72 h; read-out: Cytotoxicity CC50 (CI 95%)
Description: as §1

[19] = Candida albicans (C.alb.H8), 50 μL of 1 mg/mL in DMSO, 18 h, 30 °C, amphotericin B 10 µg/mL
[20] = read-out: Inhibition Zone of Test Microorganism

| Compound | Inhibition Zone of Test Microorganism [12] | zone of inhibition at 1000 µg/mL [8, 19] [mm] | antifungal activity in words [8] | GI50 ([1]; Homo sapiens, K562) [µM] | GI50 ([2]; Homo sapiens) [µM] | GI50 ([3]; Homo sapiens) [µM] | GI50 ([4]; Homo sapiens) [µM] | zone of inhibition at 1000 µg/mL [10] [mm] | Inhibition Zone of Test Microorganism [16] | zone of inhibition at 1000 µg/mL [13] [mm] | zone of inhibition at 1000 µg/mL [14] [mm] | antimicrobial activity over the panel in words [17] | CC50 at 72 h [18] [µM] | also measured |
| --- | --- | --- | --- | --- | --- | --- | --- | --- | --- | --- | --- | --- | --- | --- |
| 3,5,3′-Trihydroxy-7,2′-dimethoxyflavonol [Compound 11] |  |  |  |  |  |  |  |  |  |  |  |  |  | GI50 [1]: 71.5 µM; GI50 [2]: > 100 µM; GI50 [3]: 50.6 µM; GI50 [4]: 67 µM; CC50 [5]: > 100 µM |
| C[C@@H]1[C@H](O)[C@@H](C)/C=C/C=C/C=C/C=C/C=C/C=C/C=C/[C@H](O[C@@H]2O[C@H](C)[C@@H](O)[C@H](N)[C@@H]2O)C[C@@H]2O[C@](O)(C[C@@H](O)C[C@@H](O)[C@H](O)CC[C@@H](O)C[C@@H](O)CC(=O)O[C@H]1C)C[C@H](O)[C@H]2C(=O)O [Amphotericin B, reference compound] |  |  |  |  |  |  |  |  |  |  |  |  |  | Inhibition Zone of Test Microorganism [6]: 19 mm; Inhibition Zone of Test Microorganism ([7]; Penicillium notatum (JP36 P1), 50 μL of 1 mg/mL in DMSO, 18 h, 30 °C, amphotericin B 10 µg/mL): 19 mm; Inhibition Zone of Test Microorganism [8, 19]: 20 mm |
| O=C(O)c1cn(C2CC2)c2cc(N3CCNCC3)c(F)cc2c1=O [Ciprofloxacin, reference compound] | - |  |  |  |  |  |  |  |  |  |  |  |  | Inhibition Zone of Test Microorganism [9]: 32 mm; Inhibition Zone of Test Microorganism [10]: 29 mm; Inhibition Zone of Test Microorganism [11]: 19 mm; Inhibition Zone of Test Microorganism [13]: 22 mm; Inhibition Zone of Test Microorganism [14]: 16 mm |
| O=C1CC(c2cccc(O)c2O)Oc2cc3c(c(O)c21)OCO3 (centres unmarked) [Compound 5, 5,2′,3′-Trihydroxy-6,7-methylenedioxyflavanone] |  | 13 | weak activity | 44.3 | 69 | 16.5 | > 100 | 13 | - | 20 | 13 | most active; also recorded: broad activity against eight microorganisms out of eleven | > 100 | zone of inhibition at 1000 µg/mL ([7]; Penicillium chrysogenum, Penicillium notatum (JP36 P1), 50 μL of 1 mg/mL in DMSO, 18 h, 30 °C, amphotericin B 10 µg/mL, read-out: Inhibition Zone of Test Microorganism): 16 mm; antifungal activity in words ([7]; Penicillium notatum, agar diffusion): moderate activity; zone of inhibition at 1000 µg/mL [11, 20]: 15 mm; zone of inhibition at 1000 µg/mL [12, 20]: 13 mm; zone of inhibition at 1000 µg/mL ([15]; Pseudomonas aeruginosa, read-out: Inhibition Zone of Test Microorganism): 17 mm |
| COc1cc2occ(-c3cccc(O)c3O)c(=O)c2c(O)c1OC [Compound 10, 5,2′,3′-Trihydroxy-6,7-dimethoxyisoflavone] | - | 13 | weak activity | 7.6 | 35.8 | 9.1 | 98.8 | 13 | - | 16 | 13 | most active | > 100 | antiproliferative activity in words ([1]; K-562): active; antiproliferative activity in words ([3]; THP-1): active; Inhibition Zone of Test Microorganism ([15]; Pseudomonas aeruginosa (K799/61 B9), 50 μL of 1 mg/mL in DMSO, ciprofloxacin 5 µg/mL): - |
